Results published in US20240285784A1, “PEPTIDIC CONJUGATES OF SN38 USEFUL IN THE TREATMENT OF CANCER” (FUNDACIÓ INSTITUT DE RECERCA BIOMÈDICA (IRB BARCELONA), priority 2020, published 2024).
≈ marks a conversion by molar mass, not a printed value.

Experiment: Turbidimetric aqueous solubility
Format: physicochemical
Settings: 37 °C, pH 7.4, aqueous buffer, kinetic from dmso stock, Turbidity aqueous solubility, Estimated precipitation range
Method: Each test compound concentration was then further diluted 1 in 100 in buffer (0.01 M phosphate buffered saline pH 7.4) so that the final DMSO concentration was 1% and the final test compound concentrations were 1, 3, 10, 30 and 100 μM. The experiment was performed at 37° C. and each concentration was incubated in 7 replicate wells. The plates were incubated for 2 hr at 37° C. before the absorbance was measured at 620 nm.

Q: With COC(=O)C1=C(C)NC(C)=C(C(=O)OCCN(C)Cc2ccccc2)C1c1cccc([N+](=O)[O-])c1 (stereo not drawn) [Nicardipine, reference compound] as the compound, how does the solubility at 2 h (Calculated mid-range) read?
A: 11.5 µM (≈ 5.51 µg/mL)

Q: And the solubility at 2 h (Lower bond)?
A: 3 µM (≈ 1.44 µg/mL)

Q: And the solubility at 2 h (Upper bond)?
A: 20 µM (≈ 9.59 µg/mL)
